Assay results published in ChEMBL document CHEMBL1201862, “PubChem BioAssay data set” (2004).
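Dose response: 5 concentrations. Exposure: 48 h. Format: 96-well plates. Endpoint: linear interpolation; highest concentration if not reached. Here, GI50 denotes the concentration required for 50% inhibition of growth.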 Activity calls are given as the source filed them. No stated cut-off is given here; in the data, active = GI50 up to about 1.1 µM and inactive = higher.

What was measured:
Experiment in all cases: DTP human tumour cell line panel, 48 h
SNB-75 = system: SNB-75
CCRF-CEM = system: CCRF-CEM
UACC-62 = system: UACC-62
HL-60 = system: HL-60
SK-MEL-28 = system: SK-MEL-28
LOX IMVI = system: LOX IMVI
BT-549 = system: BT-549
A549 = system: A549
MDA-MB-435 = system: MDA-MB-435
RPMI-8226 = system: RPMI-8226
SR = system: SR
SK-OV-3 = system: SK-OV-3
NCI-H23 = system: NCI-H23
UACC-257 = system: UACC-257
NCI/ADR-RES = system: NCI/ADR-RES
PC-3 = system: PC-3
NCI-H522 = system: NCI-H522
M14 = system: M14
SF-268 = system: SF-268

| Structure (SMILES) | GI50 (SNB-75) | GI50 (CCRF-CEM) | GI50 (UACC-62) | GI50 (HL-60) | GI50 (SK-MEL-28) | GI50 (LOX IMVI) | GI50 (BT-549) | GI50 (A549) | GI50 (MDA-MB-435) | GI50 (RPMI-8226) | GI50 (SR) | GI50 (SK-OV-3) | GI50 (NCI-H23) | GI50 (UACC-257) | GI50 (NCI/ADR-RES) | GI50 (PC-3) | GI50 (NCI-H522) | GI50 (M14) | GI50 (SF-268) |
| --- | --- | --- | --- | --- | --- | --- | --- | --- | --- | --- | --- | --- | --- | --- | --- | --- | --- | --- | --- |
| COc1ccc(-c2ncnc(-c3ccc(OC)c(OC)c3)n2)cc1OC | > 100 µM (inactive) | > 100 µM (inactive) | > 100 µM (inactive) | > 100 µM (inactive) | > 100 µM (inactive) | > 100 µM (inactive) | > 100 µM (inactive) | > 100 µM (inactive) | > 100 µM (inactive) | > 10 µM (inactive) | 45.2 µM (inactive) | > 100 µM (inactive) | > 100 µM (inactive) | > 100 µM (inactive) | > 100 µM (inactive) | > 100 µM (inactive) | > 100 µM (inactive) | > 100 µM (inactive) | > 100 µM (inactive) |
| CCOP(=O)(OCC)/C(C#N)=C\c1cccc2ccccc12 | 22.4 µM (inactive) | 30.1 µM (inactive) | 35.5 µM (inactive) | 23 µM (inactive) | 28.2 µM (inactive) | 20.9 µM (inactive) | 51.9 µM (inactive) | > 100 µM (inactive) | 34.7 µM (inactive) | 23 µM (inactive) | 31.8 µM (inactive) | 45.5 µM (inactive) | 78.3 µM (inactive) | 71.3 µM (inactive) | 52.7 µM (inactive) | 64 µM (inactive) | > 88.1 µM (inactive) | 80 µM (inactive) | 21.4 µM (inactive) |
| N#C/C(N)=C(C#N)/N=C/Nc1ccc(N)cc1 | > 100 µM (inactive) | 44.3 µM (inactive) | > 100 µM (inactive) | 30.3 µM (inactive) | > 100 µM (inactive) | > 100 µM (inactive) | > 100 µM (inactive) | > 100 µM (inactive) | > 100 µM (inactive) | > 100 µM (inactive) | > 100 µM (inactive) | > 100 µM (inactive) | > 100 µM (inactive) | > 100 µM (inactive) | > 100 µM (inactive) | > 100 µM (inactive) | > 100 µM (inactive) | > 100 µM (inactive) | > 100 µM (inactive) |
| COc1cc(S(=O)(=O)Nc2ccc(-c3csc(N4C(=O)C(Cl)C4c4ccccc4O)n3)cc2)ccc1Cl (stereo not given) | 62.7 µM (inactive) | 2.73 µM (inactive) | 17 µM (inactive) | 21.8 µM (inactive) | 38.1 µM (inactive) | 1.49 µM (inactive) | 29 µM (inactive) | > 100 µM (inactive) | 31.4 µM (inactive) | 23.2 µM (inactive) | 4.82 µM (inactive) | > 100 µM (inactive) | 23.6 µM (inactive) | 29.1 µM (inactive) | > 100 µM (inactive) | 42.3 µM (inactive) | 1.51 µM (inactive) | 50.9 µM (inactive) | 25.8 µM (inactive) |
| O=C(CCCN1CCC2(CC1)CC(=O)N(N1CCCCCC1)C2=O)c1ccc(F)cc1 | 50.8 µM (inactive) | 5.7 µM (inactive) | > 100 µM (inactive) | 14.1 µM (inactive) | > 100 µM (inactive) | 33.1 µM (inactive) | 65.5 µM (inactive) | > 100 µM (inactive) | > 100 µM (inactive) | 58.5 µM (inactive) | 29.2 µM (inactive) | 91.6 µM (inactive) | 54.2 µM (inactive) | 26.7 µM (inactive) | 18.2 µM (inactive) | > 100 µM (inactive) | 52.7 µM (inactive) | 33.6 µM (inactive) | > 100 µM (inactive) |
| C/C(=N\NC(=S)Nc1ccccc1)c1nc2cccnc2[nH]1 | 12.2 µM (inactive) | 0.389 µM (active) | 2.85 µM (inactive) | 2.92 µM (inactive) | 0.706 µM (active) | 2.31 µM (inactive) | 5.26 µM (inactive) | 3.31 µM (inactive) | 3.7 µM (inactive) | 3.75 µM (inactive) | 0.766 µM (active) | 5.36 µM (inactive) | 9.53 µM (inactive) | 2.18 µM (inactive) | 3.3 µM (inactive) | 3.4 µM (inactive) | 2.18 µM (inactive) | 3.58 µM (inactive) | 0.583 µM (active) |
| N/C(=N\c1ccccc1Cl)c1ccccc1N | 95.5 µM (inactive) | > 100 µM (inactive) | > 100 µM (inactive) | > 100 µM (inactive) | > 100 µM (inactive) | > 100 µM (inactive) | > 100 µM (inactive) | > 100 µM (inactive) | > 100 µM (inactive) | > 100 µM (inactive) | > 100 µM (inactive) | > 100 µM (inactive) | > 100 µM (inactive) | > 100 µM (inactive) | > 100 µM (inactive) | > 100 µM (inactive) | > 100 µM (inactive) | > 100 µM (inactive) | > 100 µM (inactive) |
| CC12ON(P(=O)(c3ccccc3)c3ccccc3)C(C)(c3ccccc31)c1ccccc12 | > 100 µM (inactive) | 46.2 µM (inactive) | > 100 µM (inactive) | 55.6 µM (inactive) | > 100 µM (inactive) | > 100 µM (inactive) | > 100 µM (inactive) | > 100 µM (inactive) | > 100 µM (inactive) | 58.9 µM (inactive) | 46.1 µM (inactive) | > 100 µM (inactive) | > 100 µM (inactive) | > 100 µM (inactive) | > 100 µM (inactive) | > 100 µM (inactive) | > 100 µM (inactive) | > 100 µM (inactive) | > 100 µM (inactive) |
| CCOC(=O)CC[C@H](NC(=O)[C@H](N)Cc1ccc(N(CCCl)CCCl)cc1)C(=O)OCC | 12 µM (inactive) | 1.14 µM (inactive) | 2.68 µM (inactive) | 5.3 µM (inactive) | 21.6 µM (inactive) | 11.6 µM (inactive) | 26.2 µM (inactive) | 35.4 µM (inactive) | 26.9 µM (inactive) | 19.6 µM (inactive) | 1.91 µM (inactive) | 36.3 µM (inactive) | 3.08 µM (inactive) | 11 µM (inactive) | 9.42 µM (inactive) | 20.8 µM (inactive) | 4.53 µM (inactive) | 8.65 µM (inactive) | 1.43 µM (inactive) |
| COc1ccc(/N=N/C(=O)NC(CC(C)C)C(N)=O)cc1 (stereo not given) | > 100 µM (inactive) | > 27.7 µM (inactive) | 6.92 µM (inactive) | > 100 µM (inactive) | > 69 µM (inactive) | 9.48 µM (inactive) | 47.1 µM (inactive) | 9.14 µM (inactive) | 28.2 µM (inactive) | 14.8 µM (inactive) | 5.64 µM (inactive) | > 100 µM (inactive) | > 100 µM (inactive) | 23.6 µM (inactive) | 55.5 µM (inactive) | > 100 µM (inactive) | > 100 µM (inactive) | > 28.9 µM (inactive) | > 100 µM (inactive) |
| COC(=O)C1=CO[C@@H](OC2OC(CO)C(O)C(O)C2O)[C@@H]2[C@H](C)[C@@H](O)[C@@H](O)[C@]12O (stereo not given in full) | 33 µM (inactive) | > 10 µM (inactive) | > 100 µM (inactive) | > 100 µM (inactive) | > 100 µM (inactive) | > 100 µM (inactive) | > 100 µM (inactive) | > 100 µM (inactive) | > 100 µM (inactive) | > 100 µM (inactive) | > 100 µM (inactive) | > 100 µM (inactive) | > 100 µM (inactive) | > 100 µM (inactive) | > 100 µM (inactive) | > 100 µM (inactive) | > 100 µM (inactive) | > 100 µM (inactive) | > 100 µM (inactive) |
| COc1cccc(/C=N/C(/N=C/c2cccc(OC)c2O)c2cccc(OC)c2O)c1O | 13.9 µM (inactive) | 7 µM (inactive) | 24.2 µM (inactive) | 25.9 µM (inactive) | 18.7 µM (inactive) | 10.5 µM (inactive) | 19.6 µM (inactive) | 26.7 µM (inactive) | 28.3 µM (inactive) | 22 µM (inactive) | 6.38 µM (inactive) | 26 µM (inactive) | 28.8 µM (inactive) | 23.1 µM (inactive) | 19.6 µM (inactive) | 26 µM (inactive) | 21.8 µM (inactive) | 17.1 µM (inactive) | 10.6 µM (inactive) |
| Oc1cc(O)c2c(c1)O[C@H](c1cc(O)c(O)c(O)c1)[C@H](O)C2 [EPIGALLOCATECHIN] | 31.6 µM (inactive) | 17.9 µM (inactive) | – | 19.5 µM (inactive) | 36.6 µM (inactive) | 27.9 µM (inactive) | 19.2 µM (inactive) | 27.5 µM (inactive) | 6.9 µM (inactive) | 13.8 µM (inactive) | 14.4 µM (inactive) | 18.6 µM (inactive) | 23.1 µM (inactive) | > 100 µM (inactive) | 22.6 µM (inactive) | 16.5 µM (inactive) | 17.7 µM (inactive) | 23.6 µM (inactive) | 25.4 µM (inactive) |
| Oc1c2ccccc2c2c3c(cccc13)N=N2 [SP-600125] | 16.9 µM (inactive) | 16.1 µM (inactive) | 14.6 µM (inactive) | 42.1 µM (inactive) | 37.6 µM (inactive) | 12.8 µM (inactive) | 30.8 µM (inactive) | 14.9 µM (inactive) | 12.8 µM (inactive) | 18.8 µM (inactive) | 13.1 µM (inactive) | 21 µM (inactive) | 23.8 µM (inactive) | 29.5 µM (inactive) | 22.6 µM (inactive) | 23.3 µM (inactive) | 12.2 µM (inactive) | > 100 µM (inactive) | 18.5 µM (inactive) |
